Assay [1] in a line: Inhibition of thrombin-induced platelet aggregation in human.
A short description of assay [2]: Noradrenaline induced vasorelaxant activity in intact rat aortic rings.

By IC50 is commonly meant the concentration at which inhibition is half-maximal. Turning to `COc1cc(OC)cc(-c2cc3ccc(O)cc3oc2=O)c1` [3-(3,5-dimethoxyphenyl)-7-hydroxy-2H-chromen-2-one], the results for the IC50 in assay [1] and in assay [2] were 105 µM and 39.8 µM, respectively.
Compound `Oc1ccc(/C=C/c2cc(O)cc(O)c2)cc1` [5-[(E)-2-(4-hydroxyphenyl)ethenyl]benzene-1,3-diol] gave an IC50 in assay [2] of 19.9 µM.
Turning to `O=c1oc2c(O)cc(O)cc2cc1-c1cc(O)cc(O)c1` [6,8-dihydroxy-3-(3',5'-dihydroxyphenyl)coumarin], the figures for the IC50 in assay [1] and in assay [2] were 285 µM and 95.5 µM, respectively.
With `COc1cc(OC)cc(-c2cc3cc(OC)cc(OC)c3oc2=O)c1` [6,8-dimethoxy-3-(3',5'-dimethoxyphenyl)coumarin], the IC50 in assay [1] and in assay [2] was over 100 µM in each case.
`O=c1oc2ccc(O)cc2cc1-c1cc(O)cc(O)c1` [6-hydroxy-3-(3',5'-dihydroxyphenyl)coumarin]: the IC50 is 30.1 µM in assay [1] and 10.6 µM in assay [2].
`COc1cc(OC)cc(-c2cc3cc(OC)ccc3oc2=O)c1` [6-methoxy-3-(3',5'-dimethoxyphenyl)coumarin]: the IC50 was over 25 µM in assay [1] and 42.6 µM in assay [2].
Consider `O=c1oc2cc(O)ccc2cc1-c1cc(O)cc(O)c1` [7-hydroxy-3-(3',5'-dihydroxyphenyl)coumarin], for which the values for the IC50 in assay [1] and in assay [2] were 62.3 µM and 38.9 µM, respectively.
With `COc1cc(OC)cc(-c2cc3ccc(OC)cc3oc2=O)c1` [7-methoxy-3-(3',5'-dimethoxyphenyl)coumarin], the IC50 in assay [1] is over 100 µM; in assay [2], 52.5 µM.

For the origin of these results see BindingDB's records for doi:10.1016/j.bmcl.2005.10.013 (Universidad De Santiago De Compostela, 2005).
